Key:
mOR178-1 = format: cell-based, mouse
mOR18-2 = biological target: T1, mOR18-2 (Mus musculus, UniProt Q8VBV9); format: cell-based
T1 construct: expressed in transfected cells
T1 sequence (Q8VBV9 1-320): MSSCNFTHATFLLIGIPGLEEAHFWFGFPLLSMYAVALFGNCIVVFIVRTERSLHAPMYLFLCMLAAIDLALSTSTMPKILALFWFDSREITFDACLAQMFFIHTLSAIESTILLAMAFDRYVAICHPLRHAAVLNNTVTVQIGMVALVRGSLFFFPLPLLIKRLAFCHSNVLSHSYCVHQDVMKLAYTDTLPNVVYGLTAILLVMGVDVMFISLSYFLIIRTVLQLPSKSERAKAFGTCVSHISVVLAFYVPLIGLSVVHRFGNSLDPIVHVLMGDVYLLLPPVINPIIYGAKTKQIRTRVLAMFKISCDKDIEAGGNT

mOR18-1 = format: cell-based, Mus musculus
OR2W1 = biological target: T2, OR2W1 (Homo sapiens, UniProt Q9Y3N9); format: cell-based
T2 construct: expressed in transfected cells
T2 sequence (Q9Y3N9 1-320): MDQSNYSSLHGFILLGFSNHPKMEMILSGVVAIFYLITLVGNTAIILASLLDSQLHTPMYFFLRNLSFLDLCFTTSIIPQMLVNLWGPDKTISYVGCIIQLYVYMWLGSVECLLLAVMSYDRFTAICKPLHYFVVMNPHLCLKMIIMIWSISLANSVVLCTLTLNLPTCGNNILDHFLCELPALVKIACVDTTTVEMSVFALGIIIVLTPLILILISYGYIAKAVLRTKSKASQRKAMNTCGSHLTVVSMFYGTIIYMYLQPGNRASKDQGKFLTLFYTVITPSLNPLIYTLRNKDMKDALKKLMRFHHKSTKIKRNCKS

Measured: receptor response as measured levels of luminescence

CCN(CC)C(=O)[C@@H]1C=C2c3cccc4[nH]cc(c34)C[C@H]2N(C)C1 [LSD]
responded: all assays above

c1ccc(C2(N3CCCCC3)CCCCC2)cc1 [PCP]
responded: all assays above

CC(=O)Oc1ccc2c3c1O[C@H]1[C@@H](OC(C)=O)C=C[C@H]4[C@@H](C2)N(C)CC[C@@]341 [heroine]
responded: all assays above

— patent US20230003720A1 (priority 2016, published 2023)
